Structures can show the parent of a compound that is named as a salt. Where two headings read alike, the source gives them in different places.
How the values were obtained:
[1] = molecular target: T1, recombinant guanylate cyclase reporter cell line (Rattus norvegicus, UniProt P19686+P20595); test: Action on recombinant guanylate cyclase reporter cell line; format: cell-based; conditions: in some cases mean values from individual determinations
T1 construct: expressed in transfected cells; host or cells: recombinant reporter cell line
T1 sequence (P19686 1-690): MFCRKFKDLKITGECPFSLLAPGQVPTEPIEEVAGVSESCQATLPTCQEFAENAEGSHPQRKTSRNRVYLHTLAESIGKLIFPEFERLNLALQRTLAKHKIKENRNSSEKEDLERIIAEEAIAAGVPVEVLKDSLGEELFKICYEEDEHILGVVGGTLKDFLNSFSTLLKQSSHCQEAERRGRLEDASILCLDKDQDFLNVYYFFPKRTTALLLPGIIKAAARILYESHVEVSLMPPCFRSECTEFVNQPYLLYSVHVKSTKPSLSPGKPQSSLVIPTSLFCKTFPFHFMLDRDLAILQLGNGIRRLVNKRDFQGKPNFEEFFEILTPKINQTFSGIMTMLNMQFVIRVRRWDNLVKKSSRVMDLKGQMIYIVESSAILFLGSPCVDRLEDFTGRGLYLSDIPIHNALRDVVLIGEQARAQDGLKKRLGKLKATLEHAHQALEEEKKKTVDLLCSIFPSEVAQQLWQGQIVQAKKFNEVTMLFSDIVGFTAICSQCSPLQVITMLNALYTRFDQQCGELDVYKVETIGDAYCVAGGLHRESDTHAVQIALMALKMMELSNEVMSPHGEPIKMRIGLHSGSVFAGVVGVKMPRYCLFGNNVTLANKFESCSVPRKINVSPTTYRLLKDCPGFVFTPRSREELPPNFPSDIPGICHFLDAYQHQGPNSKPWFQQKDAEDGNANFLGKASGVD
T1 sequence (P20595 1-619): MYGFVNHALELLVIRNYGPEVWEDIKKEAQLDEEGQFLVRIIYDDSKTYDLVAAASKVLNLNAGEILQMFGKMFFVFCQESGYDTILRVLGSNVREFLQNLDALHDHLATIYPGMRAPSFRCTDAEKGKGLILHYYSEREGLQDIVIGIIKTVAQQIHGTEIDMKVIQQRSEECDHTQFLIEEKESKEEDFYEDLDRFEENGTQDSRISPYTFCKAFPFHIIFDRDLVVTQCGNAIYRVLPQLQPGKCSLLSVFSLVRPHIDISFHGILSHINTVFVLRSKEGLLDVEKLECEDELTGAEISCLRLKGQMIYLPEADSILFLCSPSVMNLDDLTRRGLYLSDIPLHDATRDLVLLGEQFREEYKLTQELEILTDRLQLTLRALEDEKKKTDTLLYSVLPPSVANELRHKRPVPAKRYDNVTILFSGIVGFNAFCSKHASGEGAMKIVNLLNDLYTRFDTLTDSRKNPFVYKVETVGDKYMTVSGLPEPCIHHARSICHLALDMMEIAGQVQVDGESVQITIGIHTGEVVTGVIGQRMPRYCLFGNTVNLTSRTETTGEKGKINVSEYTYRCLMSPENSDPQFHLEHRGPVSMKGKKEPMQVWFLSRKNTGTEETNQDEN
Procedure, shortened: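 Whole-cell reporter assay with recombinant guanylate cyclase; endpoint = minimal effective concentration.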

[2] = Determination of pharmacokinetic parameters following intravenous and oral administration (rats); format: in vivo, male Wistar rats; conditions: intravenous administration in rats
Procedure, shortened: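 Rats (male Wistar) dosed IV in plasma/DMSO formulation or orally by gavage in water/PEG400/ethanol; serial jugular-catheter blood sampling (usually >10 points, up to 24–72 h).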

[3] = male, Wistar, rat, plasma, iv, read-out: MRT

Row | MEC (minimal effective concentration) [1] [µM] | AUCnorm [2] [kg·h/L] | CLblood [2] [mL/min/kg] | MRT [2] [h] | t1/2 [2] [h] | half-life ([2]; male, Wistar, rat, plasma, iv) [h] | MRT [2, 3] [h] | Structure (SMILES)
1 | 0.03 | 0.56 | 36.2 | 4.1 | 3.2 | – | – | Cc1nc2c(OCc3c(F)cccc3F)cc(C(F)F)cn2c1C(=O)NCC(C)(N)CF (single isomer, unassigned; enantiomer b) [Example 292, ent-N-(2-amino-3-fluoro-2-methylpropyl)-8-[(2,6-difluorobenzyl)oxy]-6-(difluoromethyl)-2-methylimidazo[1,2-a]pyridine-3-carboxamide (Enantiomer B)]
2 | 0.30 | 1.55 | 8.5 | – | – | 8.6 | 11.8 | Cc1nc2c(OCc3c(F)cccc3F)cc(Cl)cn2c1C(=O)NCC(C)(C)N [Example 73, N-(2-Amino-2-methylpropyl)-6-chloro-8-[(2,6-difluorobenzyl)oxy]-2-methylimidazo[1,2-a]-pyridine-3-carboxamide]
3 | 0.30 | 0.97 | 21.2 | – | – | 7.7 | 11.2 | Cc1nc2c(OCc3c(F)cccc3F)cc(Cl)cn2c1C(=O)NCC1(N)CCC1 [Example 155, N-[(1-aminocyclobutyl)methyl]-6-chloro-8-[(2,6-difluorobenzyl)oxy]-2-methylimidazo[1,2-a]-pyridine-3-carboxamide trifluoroacetate]
4 | 0.30 | 0.54 | 28 | – | – | 3.3 | 3.9 | Cc1cc(OCc2c(F)cccc2F)c2nc(C)c(C(=O)NC[C@H]3CCCCN3)n2c1 [Example 173, 8-[(2,6-Difluorobenzyl)oxy]-2,6-dimethyl-N-[(2R)-piperidin-2-ylmethyl]imidazo[1,2-a]pyridine-3-carboxamide]
5 | 0.10 | 0.70 | 21.2 | – | – | 2.9 | 4.5 | Cc1cc(OCc2c(F)ccc(F)c2F)c2nc(C)c(C(=O)NCC(C)(C)N)n2c1 [Example 276, N-(2-Amino-2-methylpropyl)-2,6-dimethyl-8-[(2,3,6-trifluorobenzyl)oxy]imidazo[1,2-a]pyridine-3-carboxamide]
6 | 0.65 | 0.35 | 29.7 | – | – | 6.9 | 9.8 | Cc1cc(OCc2c(F)cccc2F)c2nc(C)c(C(=O)NCC3(N)CCCCC3)n2c1 [Example 307, N-[(1-aminocyclohexyl)methyl]-8-[(2,6-difluorobenzyl)oxy]-2,6-dimethylimidazo[1,2-a]pyridine-3-carboxamide]
7 | 0.10 | 0.61 | 16.3 | – | – | 10.3 | 13.9 | C#Cc1cc(OCc2c(F)cccc2F)c2nc(C)c(C(=O)NCC(C)(N)CCC)n2c1 (stereo not drawn) [Example 356, ent-N-(2-amino-2-methylpentyl)-8-[(2,6-difluorobenzyl)oxy]-6-ethynyl-2-methylimidazo[1,2-a]pyridine-3-carboxamide]
